In patent US20060257987A1, “Ppar modulators” (priority 2003, published 2006):
pEC50: −log10 of the molar value.

Experiments:
[1] = biological target: T1, huPPARγ (Homo sapiens, UniProt P37231); assay: Cotransfection assay in CV-1 cells, AOX PPRE luciferase reporter; type: cell-based
T1 construct: expressed in transfected cells; host or cells: CV-1 cells
T1 sequence (P37231 1-505): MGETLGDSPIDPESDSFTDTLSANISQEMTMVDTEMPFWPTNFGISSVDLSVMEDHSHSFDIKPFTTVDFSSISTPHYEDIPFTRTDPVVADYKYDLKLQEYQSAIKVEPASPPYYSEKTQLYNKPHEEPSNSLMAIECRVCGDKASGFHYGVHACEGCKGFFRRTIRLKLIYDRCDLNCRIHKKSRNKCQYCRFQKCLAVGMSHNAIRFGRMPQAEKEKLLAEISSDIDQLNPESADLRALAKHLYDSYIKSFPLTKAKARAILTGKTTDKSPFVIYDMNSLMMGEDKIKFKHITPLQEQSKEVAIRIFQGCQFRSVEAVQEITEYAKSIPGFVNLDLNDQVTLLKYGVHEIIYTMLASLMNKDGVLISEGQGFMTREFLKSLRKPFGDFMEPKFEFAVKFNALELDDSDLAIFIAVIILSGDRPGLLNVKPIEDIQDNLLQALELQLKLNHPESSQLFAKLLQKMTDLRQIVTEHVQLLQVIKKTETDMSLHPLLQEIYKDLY
T1 sequence (P19793 1-462 partner): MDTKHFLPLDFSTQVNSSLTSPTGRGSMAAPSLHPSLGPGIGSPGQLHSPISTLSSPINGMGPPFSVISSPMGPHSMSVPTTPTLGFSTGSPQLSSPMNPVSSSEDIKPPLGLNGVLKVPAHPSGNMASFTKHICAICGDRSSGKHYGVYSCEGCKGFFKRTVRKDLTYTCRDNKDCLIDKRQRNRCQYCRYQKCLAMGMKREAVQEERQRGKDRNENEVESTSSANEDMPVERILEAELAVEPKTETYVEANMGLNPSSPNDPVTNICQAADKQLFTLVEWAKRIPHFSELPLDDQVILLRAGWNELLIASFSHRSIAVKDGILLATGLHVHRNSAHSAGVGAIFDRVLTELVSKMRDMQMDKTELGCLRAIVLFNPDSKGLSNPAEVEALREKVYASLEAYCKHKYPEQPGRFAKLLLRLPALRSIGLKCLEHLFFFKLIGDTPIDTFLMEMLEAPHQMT
Protocol: (§1) Cotransfection assays are carried out in CV-1 cells. The reporter plasmid contains an acylCoA oxidase (AOX) PPRE and TK promoter upstream of the luciferase reporter cDNA. Appropriate PPARs and RXRα are constitutively expressed using plasmids containing the CMV promoter. Since for PPARα and PPARβ, interference by endogenous PPARγ in CV-1 cells is an issue, in order to eliminate such interference, a GAL4 chimeric system is used in which the DNA binding domain of the transfected PPAR is replaced by that of GAL4, and the GAL4 response element is utilized in place of the AOX PPRE. Receptor activation by compounds of the present invention is determined relative to PPARα agonist and PPARγ agonist reference molecules to obtain percent efficacies. EC50 values are determined by computer fit to a concentration-response curve. […] In some cases, a single high concentration of agonist (10 μM) was used.

[2] = biological target: T2, huPPARα (Homo sapiens, UniProt Q07869); assay: Cotransfection assay in CV-1 cells, GAL4 chimeric system, luciferase reporter
T2 sequence (Q07869 200-468 limits assumed): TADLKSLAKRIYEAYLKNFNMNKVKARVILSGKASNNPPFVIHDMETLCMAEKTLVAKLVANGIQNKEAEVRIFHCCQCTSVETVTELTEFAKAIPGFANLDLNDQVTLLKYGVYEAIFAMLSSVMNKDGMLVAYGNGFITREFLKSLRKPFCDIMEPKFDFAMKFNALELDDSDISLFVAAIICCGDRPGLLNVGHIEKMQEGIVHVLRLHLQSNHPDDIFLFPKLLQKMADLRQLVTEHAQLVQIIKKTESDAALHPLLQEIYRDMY
Protocol: as §1

[3] = biological target: T3, huPPARδ (Homo sapiens, UniProt Q03181); assay: as above
T3 sequence (Q03181 211-441 limits assumed): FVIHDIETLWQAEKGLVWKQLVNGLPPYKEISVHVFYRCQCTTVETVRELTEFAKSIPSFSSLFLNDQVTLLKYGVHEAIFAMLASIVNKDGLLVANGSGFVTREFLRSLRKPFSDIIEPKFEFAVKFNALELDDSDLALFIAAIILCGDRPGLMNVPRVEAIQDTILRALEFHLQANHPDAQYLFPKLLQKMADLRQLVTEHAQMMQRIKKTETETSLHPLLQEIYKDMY
Protocol: as §1

[4] = system: hu apoAI transgenic mice; assay: Evaluation of triglyceride and cholesterol level in HuapoAI transgenic mice; type: in vivo; details: 100 mg/kg oral gavage daily for 7 days

Row | Emax ([1]; CV-1, Table 4, percent efficacy relative to reference agonist, read-out: Eff % γ) | pEC50 ([1]; Table 4, effect of X/Y, scaffold drawing 255) | pEC50 [2] | Emax ([2]; CV-1, read-out: Eff % α) | pEC50 [3] | Emax ([3]; CV-1, read-out: Eff % δ) | SMILES | high-density lipoprotein cholesterol (HDLc) peak area ([4]; FPLC of pooled sera, vehicle 47 to 62 v-sec) | mean percent increase of HDLc ([4]; FPLC of pooled sera, versus vehicle) | average triglycerides values ([4]; serum, vehicle about 60 to 80 mg/dl) | mean elevation of total serum cholesterol ([4]; versus vehicle) | mean reduction of triglycerides ([4]; versus vehicle)
1 | 63% | 6.58 | 5.54 | 39% | 7.64 | 112% | CCc1ccc(OC(C)CCSc2ccc(OCC(=O)O)c(C)c2)c(C(=O)c2ccccc2)c1 (centres unmarked) [S/O] | – | – | – | – | –
2 | – | – | – | – | – | – | CC(C)OC(=O)C(C)(C)Oc1ccc(C(=O)c2ccc(Cl)cc2)cc1 [fenofibrate] | 68-96 v-sec | 48% | 33 to 58 mg/dL | 41% | 37%
